Measured values taken from PMC4858736, “Inhibition of cyclic diadenylate cyclase, DisA, by polyphenols” (Scientific Reports, 2016).

Target: T1, DisA (Bacillus subtilis, UniProt P37573)
T1 sequence (P37573 1-360): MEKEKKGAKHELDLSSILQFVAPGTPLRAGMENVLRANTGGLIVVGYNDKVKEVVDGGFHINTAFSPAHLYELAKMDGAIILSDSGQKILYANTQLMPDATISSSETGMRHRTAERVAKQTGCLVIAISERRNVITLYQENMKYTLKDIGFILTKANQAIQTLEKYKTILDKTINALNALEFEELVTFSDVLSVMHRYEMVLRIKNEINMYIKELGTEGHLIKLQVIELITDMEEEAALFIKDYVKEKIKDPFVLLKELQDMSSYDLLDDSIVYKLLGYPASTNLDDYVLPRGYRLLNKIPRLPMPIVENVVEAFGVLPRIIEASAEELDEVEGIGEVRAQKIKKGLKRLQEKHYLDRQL
Experiment: […]-ATP TLC diadenylate cyclase assay with purified DisA; HPLC and coralyne assays
Assay type: biochemical

With `O=C(O[C@@H]1Cc2c(O)cc(O)cc2O[C@@H]1c1cc(O)c(O)c2c(=O)c(O)cc([C@H]3Oc4cc(O)cc(O)c4C[C@H]3O)cc12)c1cc(O)c(O)c(O)c1` [TF2B, theaflavin-3′-gallate] the IC50 was 23.6 µM.
